Test results from paper PMC12641067 (Clinical Pharmacology and Therapeutics, 2025).
Where “and” joins values, the source holds several entries; their conditions need not be identical. Identical values can stand only once. Counter-ions that a name gives are not always drawn. Like-named read-outs stand apart in the source and are kept apart here.

How the values were obtained:
[1] = cited from earlier work
[2] = cited from earlier work; remark: listed apart in the source
[3] = Population PK turnover model of GCDCA-S (plasma and urine data); assay type: in vivo, human
Procedure: (§1) Individual plasma and urine data of GCDCA‐S in healthy subjects were obtained from three clinical studies. Tatosian et al.[18] (study #1) consisted of two occasions: on both occasions, a microdose probe drug cocktail for multiple clinically relevant transporters was administered, with a single oral dose of 600 mg rifampicin co‐administered on the second occasion (n = 6; 3 males, 3 females). Willemin et al.[22] (study #2) was a two‐phase, cross‐over study with a 21‐day washout period between the two phases. […] Study #3 consists of unpublished data from the same study design as reported by Willemin et al. (n = 12; 12 males).[22]
(§2) Models were evaluated using visual predictive check (VPC) plots, goodness‐of‐fit (GOF) plots, parameter uncertainty, and changes in objective function. Model visualization and simulations were conducted in MATLAB 2024a (MathWorks, Natick, MA, USA) and Graph Pad Prism 10.2.2 (GraphPad software, La Jolla, CA, USA).
(§3) The structural model for rifampicin was based on our previous report,[33] and represents a one‐compartment model with zero‐order absorption and linear elimination.
Different functions for evaluating diurnal fluctuation (e.g., Bateman, Power function) were investigated and applied to the synthesis rate in the GCDCA‐S model.
(§4) The models for rifampicin, probenecid, and GCDCA‐S incorporated both inter‐individual variability for a number of model parameters (assuming log‐normal distribution) and residual unexplained variability (using a combination of proportional and additive error models).

[4] = Plasma baseline concentration of bile acid biomarkers in clinical studies; assay type: in vivo, human; details: Study #3 (unpublished data); average concentration 0 to 24 hours, no inhibitor
Procedure: as §1
Details of the clinical studies are in Table S1 . […] Simulations were conducted in agreement with the reported study designs. The median (50th percentile) of the predicted concentrations, along with the 90% prediction interval (5th and 95th percentiles), was plotted and compared against the observed data.
Table S1. […]
Cbaseline, GCDCA-S plasma baseline concentration in the absence of inhibitors. a Plasma concentration of subjects with SLCO1B1 c.521TT genotype were used for model verification. b In both occasions, Letermovir 480mg was administered, and it has been reported that single-dose Letermovir led to small increases in GCDCA-S concentrations vs. predose levels. c Calculated based on the reported plasma AUC0-24h.

[5] = Synthesis rate of precursor bile acids and inferred GCDCA-S ksyn; set-up: species or system human
Text: Verification of GCDCA-S ksyn estimated in this study
Literature data on the SULT2A1-mediated sulfation rate of GCDCA were not available. To evaluate the validity of GCDCA-S ksyn estimated by the POPPK model, GCDCA-S ksyn was assumed to be constrained by the synthesis rate of its precursor bile acids, and an inference was made based on the reported ksyn value of the corresponding precursors (CDCA and GCDCA).
In the absence of an inhibitor, ksyn of bile acids in the turnover model is represented by Equation 11.
Under steady-state conditions (where dC/dt=0), and given that the values of CLR of GCDCA-S and its corresponding precursors are relatively small compared to their CLh, ksyn of bile acids is expressed by Equation 12.10,11 It has been reported that the biliary excretion of bile acid sulfates is slower than that of their unsulfated forms,10,12 and assuming CLh,GCDCA-S < CLh,precursors, GCDCA-S ksyn was inferred, as […]
dt = [ksyn − (Cbile acid × CLh + Cbile acid × CLR)] × Vc (Eq.11)
ksyn = Cbile acid × CLh (Eq.12) where C (µM) is plasma concentration, ksyn (µmol/h) is the zero-order synthesis rate, CLh (L/h) is hepatic clearance, CLR (L/h) is renal clearance, VC (L) is the volume of distribution.
Table S5. GCDCA-S ksyn inferred from the ksyn of its corresponding precursors Biomarker Plasma baseline (nM) Denovo ksyn (µmol/h)
Reported value Ref Reported value Ref Notes
Biomarker Plasma baseline (nM) Inferred ksyn (µmol/h)
< 3.0 Based on information 1 […]
< 2.2 Based on information 3 aAveraged Cmean value of the baseline and control groups. bSynthesis rate of unconjugated chenodeoxycholic acid. cAveraged synthesis rate of chenodeoxycholic acid reported in six studies. dSynthesis rate of chenodeoxycholic acid-glycine.

[6] = GCDCA-S CLh and fe inferred from other reported clinical DDI studies; assay type: in vivo, human
Procedure: Verification of GCDCA-S fe estimated in this study
The validity of GCDCA-S CLh and renal excretion fraction (fe) estimated in this study was evaluated by incorporating the GCDCA-S mean plasma concentration profile in other reported clinical DDI studies into the developed POPPK models. In the absence of inhibitors, under steady-state conditions (where dC/dt=0), GCDCA-S ksyn is expressed as shown in Equation 13. In the presence of rifampicin, at t=Tmax (where dC/dt=0), GCDCA-S ksyn is expressed as shown in Equation 14. By solving equation 13 and 14, CLh can be derived as shown in Equation 15. The CLh and fe values inferred from data obtained in each […]
ksyn = Cbaseline × CLh + Cbaseline × CLR (Eq.13)
k = C × CLh + C × CL (Eq.14) […]
CL = CL × Cmax−Cbaseline > CL × Cmax−Cbaseline (Eq.15)
h R Cbaseline − Cmax × 1 R Cbaseline where Cbaseline (µM) is plasma baseline concentration, Cmax (µM) is maximum plasma concentration, ksyn (µmol/h) is the zero-order synthesis rate, CLh (L/h) is hepatic clearance, CLR (L/h) is renal clearance, Cu,RIF (µM) is unbound plasma concentration of rifampicin, Ki,u,OATP1B3 (µM) is unbound inhibition constant against OATP1B3 for rifampicin.
Table S6. GCDCA-S CLh and fe inferred from other reported clinical DDI studies Reported values Inferred values Ref […]
Cbaseline, plasma baseline concentration of GCDCA-S; Cmax, maximum plasma concentration of GCDCA-S; fe, fraction excreted in urine of GCDCA-S; CLh, hepatic clearance of GCDCA-S; CLR, renal clearance […]
a Average concentration from 0 to 24hours. b The CLR value reported by Willemin et al.17 was used for calculation. Even when using the reported CLR values from other studies, the corresponding increase in CLh ensures that the estimated fe value in this calculation remains unchanged.

[7] = human, in vivo; cited from earlier work
[8] = monkey, in vivo; cited from earlier work
[9] = baseline and interaction profile after rifampicin administration; cited from earlier work
[10] = Population PK model of probenecid (plasma data); assay type: in vivo, human; details: population estimate (RSE%)
Procedure: as §1, §2, §3, §4

OATP1B transporters = details: in vitro; cited from earlier work
[11] = set-up: method as in PMID 19131563, PMID 1150035, PMID 955496, PMID 34686523; details: healthy human volunteers; cited from earlier work
[12] = information 2 (CDCA, average of six studies) and 3 (chenodeoxycholic acid-glycine)
[13] = averaged Cmean value of the baseline and control groups
[14] = final model (without sex effect), population estimate (RSE%)
[15] = model with sex effect, population estimate (RSE%)

C[C@H](CCC(=O)O)[C@H]1CC[C@H]2[C@@H]3[C@H](O)C[C@@H]4C[C@H](O)CC[C@]4(C)[C@H]3CC[C@]12C [CDCA, chenodeoxycholic acid]
Denovo ksyn [1, 12]: 17 µmol/h
Denovo ksyn ([1]; synthesis rate of unconjugated chenodeoxycholic acid (information 1)): 18 µmol/h
Plasma baseline [2, 13]: 510 nM

CC(CCC(=O)NCC(=O)O)C1CCC2C3C(O)CC4CC(O)CCC4(C)C3CCC12C (centres unmarked) [GCDCA, glycochenodeoxycholic acid]
Denovo ksyn [1, 12]: 14 µmol/h
Plasma baseline [2, 13]: 540 nM

C[C@H](CCC(=O)NCC(=O)O)[C@H]1CC[C@H]2[C@@H]3[C@H](O)C[C@@H]4C[C@H](OS(=O)(=O)O)CC[C@]4(C)[C@H]3CC[C@]12C [GCDCA‐S, Glycochenodeoxycholic acid 3‐O‐sulfate]
fraction excreted in urine (f e) ([3]; estimated from POP-PK model): < 5%
V c,GCDCA–S ([3]; final model (without sex effect), fixed at value initially estimated from the POP-PK model): 4.8 L and 4.8 (FIXED) L
CL h,GCDCA–S [3, 14]: 15 (13) L/h
ksyn [3, 14]: 1.0 (18) μmol/h
biliary excretion as share of elimination ([3]; from POP-PK model): ~ 95% and > 95%
Vc, GCDCAS ([3]; model with sex effect, fixed): 4.8 L
CLR, GCDCAS [3, 15]: 0.31 (8) L/h
CLh, GCDCAS [3, 15]: 14 (13) L/h
COVSEX (fractional change in ksyn in women relative to men) [3, 15]: 0.065 (404)
ksyn [3, 15]: 1.0 (18) μmol/h
Cbaseline [4]: 87 nM
Inferred ksyn ([5]; based on information 1): < 3.0 µmol/h
Inferred ksyn ([5]; based on information 2): < 2.8 µmol/h
Inferred ksyn ([5]; based on information 3): < 2.2 µmol/h
fe (inferred) ([6]; from data of ref 2): < 6.6%
fe (inferred) ([6]; from data of ref 3): < 6.9%
fe (inferred) ([6]; from data of ref 4): < 3.3%
fe (inferred) ([6]; from data of ref 16): < 3.1%
Plasma baseline ([2]; human, in vivo): 85 nM
CLR [7]: 0.37 L/h
fraction excreted in urine (f e) [8]: < 1%
difference in plasma concentrations, chronic kidney disease patients relative to healthy individuals [9]: no significant difference

CCCN(CCC)S(=O)(=O)c1ccc(C(=O)O)cc1 [PROB, probenecid]
clearance ([10]; both sexes, human, plasma, oral, 500 mg): 15.8 mL/min
V PROB [10]: 17 (10) L
ka PROB ([10]; 500 mg oral approx. every 6 h): 1.1 (37) /h
inhibition of OATP1B transporters (OATP1B transporters): weakly inhibits

C[C@H](CCC(=O)O)[C@H]1CC[C@H]2[C@@H]3CC[C@@H]4C[C@H](OS(=O)(=O)O)CC[C@]4(C)[C@H]3CC[C@]12C [lithocholic acid sulfate]
fraction excreted in urine (f e) [11]: < 5%
